Data on 29 molecules can be found in patent US8269013B2, “Substituted pyrazole inhibitors of c-Met protein kinase” (Vertex Pharmaceuticals Incorporated, priority 2009, dated 2012).

As a reminder, the IC50 is the concentration at which inhibition is half-maximal. Read a high IC50 as lower potency. For orientation: Ki means a dissociation constant, usually derived from enzyme kinetics or from competition with a known ligand. Lower therefore signals a stronger hold on the target.

Test [1] concerns c-Met in Snu5-AP1-Luc-Pest cells. Put plainly: Inhibition of c-Met activity in Snu5 gastric carcinoma cells (Snu5-AP1-Luc-Pest luciferase reporter). The format is cell-based, human. The following applies: Steady-Glo luminescence, 4-parameter fit. The text has this:
Compounds of formula I were also screened for their ability to inhibit the Luciferase-induced signal in an engineered Snu5 cell line. […] The constitutively active c-Met activates cellular pathways (principally MAP kinase), resulting in AP-1-induced transcription of luciferase-PEST and translation into the final product, the activity of which is quantifiable as a chemiluminescent readout upon the addition of luciferin (Steady-Glo from Promega.). Residual luminescence is strongly correlated to the inhibition of c-Met. A stable cell line was obtained by selecting the new cell line (Snu5-AP1-Luc-Pest) with puromycin. The cells were grown in complete media [Iscove's media (Invitrogen) containing 10% fetal bovine serum (FBS, Hyclone) and penicillin/gentamycin (Invitrogen)]. Compounds of the invention were dissolved in DMSO to make 10 mM initial stock solutions. Serial dilutions in DMSO were then made and transferred to complete medium to make a 10× solution. The Snu5-AP1-Luc-Pest cells were counted and diluted to 200,000-cells/mL solution. The cells (90 μL) were added to each well in a 96-well black with clear bottom plate (Costar). Then 10 μL of the 10× compound solution was added to the cells in triplicate. The plates were incubated in a 37° C./5% CO2 incubator. After 6 hours, 50 μL of the Steady-Glo reagent (Promega) was added to each well and placed on a plate shaker for 5 minutes to ensure that the cells were completely lysed.

Test [2] has as its target c-Met (Homo sapiens, UniProt P08581). Put plainly: c-Met kinase inhibition assay (radiometric, 33P-ATP, polyE4Y). Format: biochemical. The following applies: 0.5 nM c-Met, 35 μM ATP, 0.5 mg/mL polyE4Y, 20 min; competitive tight-binding fit. The protocol:
The compounds of the invention were screened for their ability to inhibit c-Met kinase using a standard radiometric assay. Briefly, in this kinase assay the transfer of the terminal ^33P-phosphate in ^33P-ATP to substrate polyE4Y is interrogated. […] Accordingly, compounds of the invention were dissolved in DMSO to make 10 mM initial stock solutions. Serial dilutions in DMSO were then made to obtain the final solutions for the assay. A 1.5 μL aliquot of DMSO or inhibitor in DMSO was added to each well, followed by the addition of ^33P-ATP, and finally the addition of c-Met and polyE4Y (obtained from Sigma). After 20 min, the reaction was quenched with 50 μL of 30% trichloroacetic acid (TCA) containing 4 mM ATP. The reaction mixture was transferred to the 0.66 mm GF filter plates (Corning) and washed three times with 5% TCA. Following the addition of 50 μL of Ultimate Gold™ high efficiency scintillant (Packard Bioscience), the samples were counted in a Packard TopCount NXT Microplate Scintillation and Luminescence Counter (Packard BioScience). The Ki values, shown in Table 2, were calculated using Microsoft Excel Solver macros to fit the data to the kinetic model for competitive tight-binding inhibition.

Chain of c-Met (P08581 25-1390): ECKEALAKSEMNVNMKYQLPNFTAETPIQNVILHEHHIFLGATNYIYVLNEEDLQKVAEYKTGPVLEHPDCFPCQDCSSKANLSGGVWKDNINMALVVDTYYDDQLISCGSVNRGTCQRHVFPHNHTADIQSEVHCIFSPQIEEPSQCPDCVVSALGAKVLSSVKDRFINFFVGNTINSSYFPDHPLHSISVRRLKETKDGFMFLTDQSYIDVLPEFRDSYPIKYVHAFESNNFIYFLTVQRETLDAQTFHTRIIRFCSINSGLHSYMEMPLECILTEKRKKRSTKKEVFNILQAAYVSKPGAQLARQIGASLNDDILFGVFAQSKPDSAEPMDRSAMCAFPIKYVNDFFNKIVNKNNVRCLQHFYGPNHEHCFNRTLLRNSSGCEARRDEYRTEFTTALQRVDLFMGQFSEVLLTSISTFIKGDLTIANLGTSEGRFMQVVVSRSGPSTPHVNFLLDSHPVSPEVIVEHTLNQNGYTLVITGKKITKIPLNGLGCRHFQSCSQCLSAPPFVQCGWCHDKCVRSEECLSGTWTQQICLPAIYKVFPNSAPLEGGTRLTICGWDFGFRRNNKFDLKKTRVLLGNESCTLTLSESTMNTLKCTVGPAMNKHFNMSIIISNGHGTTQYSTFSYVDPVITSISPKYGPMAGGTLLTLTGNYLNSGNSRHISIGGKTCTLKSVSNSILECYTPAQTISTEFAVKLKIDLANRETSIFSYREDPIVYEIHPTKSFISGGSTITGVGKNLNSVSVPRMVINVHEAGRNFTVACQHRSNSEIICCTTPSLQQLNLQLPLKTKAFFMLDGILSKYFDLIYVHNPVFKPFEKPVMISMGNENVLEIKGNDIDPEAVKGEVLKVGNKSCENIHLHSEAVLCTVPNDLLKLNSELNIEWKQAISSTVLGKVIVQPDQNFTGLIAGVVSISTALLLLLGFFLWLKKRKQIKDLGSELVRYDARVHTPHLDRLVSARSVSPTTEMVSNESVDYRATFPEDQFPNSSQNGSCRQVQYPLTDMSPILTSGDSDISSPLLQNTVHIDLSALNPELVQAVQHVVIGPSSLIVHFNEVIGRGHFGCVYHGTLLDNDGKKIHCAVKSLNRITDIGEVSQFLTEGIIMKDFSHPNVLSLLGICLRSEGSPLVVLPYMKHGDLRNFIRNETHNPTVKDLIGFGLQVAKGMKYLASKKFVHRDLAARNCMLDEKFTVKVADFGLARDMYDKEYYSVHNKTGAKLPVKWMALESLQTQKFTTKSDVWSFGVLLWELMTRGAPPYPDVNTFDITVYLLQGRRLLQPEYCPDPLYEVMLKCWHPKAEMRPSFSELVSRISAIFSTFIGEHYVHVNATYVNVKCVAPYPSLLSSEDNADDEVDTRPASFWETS

In turn, `Cc1nn(C)cc1-c1nn2c([C@@H](C)c3c(F)cc4ncccc4c3F)nnc2s1` [Compound 18] displayed a half-maximal inhibitory concentration (IC50) in test [1] (Homo sapiens, SNU-5, 6 hours) of 0.5 nM. In addition, the inhibition constant Ki in test [2] was found to be 2 nM. Taken in the same sequence, the figures for `C[C@@H](c1ccc2ncccc2c1)c1nnc2sc(-c3cn(C)nc3C(F)(F)F)nn12` [Compound 11] were 2 nM and 3 nM. Consider `Cc1nn(C)cc1-c1nn2c(C(F)(F)c3ccc4ncccc4c3)nnc2s1` [Compound 20], for which half-maximal inhibition in test [1] (Homo sapiens, SNU-5, 6 hours) (IC50) was put at 4 nM. For the same molecule, affinity in test [2] was put at a Ki of 14 nM.

`C[C@@H](c1c(F)cc2ncccc2c1F)c1nnc2sc(-c3cnn(C)c3)nn12` [reference compound]: in test [1] (Homo sapiens, SNU-5, 6 hours), half-maximal inhibition (IC50) was put at 6 nM. In test [2], the Ki was found to be 5 nM. The like results for `Cc1nn(C)cc1-c1nn2c([C@H](C)c3c(F)cc4ncccc4c3F)nnc2s1` [Compound 19] were, in that order, 5 nM and 22 nM.

On to `C[C@H](c1c(F)cc2ncccc2c1F)c1nnc2sc(-c3cnn(C)c3)nn12` [reference compound], for which the 50% inhibitory concentration (IC50) in test [1] (Homo sapiens, SNU-5, 6 hours) turned out to be 60 nM. In addition, in test [2], the affinity, expressed as Ki, was 70 nM. Taken in the same sequence, the figures for `C[C@H](c1ccc2ncccc2c1)c1nnc2sc(-c3cnn(C)c3)nn12` [reference compound] were 90 nM and 243 nM. The like results for `CCc1nn(C)cc1-c1nn2c([C@H](C)c3ccc4ncccc4c3)nnc2s1` [Compound 7] were, in that order, 6 nM and 10 nM.

For `Cn1cc(-c2nn3c(Cc4c(F)cc5ncccc5c4F)nnc3s2)cn1` [reference compound], the IC50 in test [1] (Homo sapiens, SNU-5, 6 hours) was determined as 12 nM. Besides, in test [2], the inhibition constant (Ki) came out at 16 nM. As for `C[C@@H](c1ccc2ncccc2c1)c1nnc2sc(-c3cnn(C)c3)nn12` [reference compound], the 50% inhibitory concentration (IC50) in test [1] (Homo sapiens, SNU-5, 6 hours) was 15 nM. In addition, affinity in test [2] was put at a Ki of 24 nM. Taken in the same sequence, the figures for `C[C@H](c1ccc2ncccc2c1)c1nnc2sc(-c3cn(C)nc3C3CC3)nn12` [Compound 8] were 3 nM and 24 nM. The like results for `CC(C)c1nn(C)cc1-c1nn2c(Cc3c(F)cc4ncccc4c3F)nnc2s1` [Compound 16] were, in that order, 3 nM and 2.4 nM. Regarding `Cc1nn(C)cc1-c1nn2c(Cc3ccc4ncccc4c3)nnc2s1` [Compound 1], in test [1] (6 hours), the IC50 came to 2 nM. `Cc1nn(C)cc1-c1nn2c([C@H](C)c3ccc4ncccc4c3)nnc2s1` [Compound 5] had a half-maximal inhibitory concentration (IC50) in test [1] (Homo sapiens, SNU-5, 6 hours) of 2.5 nM. In test [2], this molecule gave an inhibition constant (Ki) of 24 nM. The like results for `Cn1cc(-c2nn3c(C(C)(C)c4ccc5ncccc5c4)nnc3s2)cn1` [reference compound] were, in that order, over 1000 nM and 3400 nM.

`CCc1nn(C)cc1-c1nn2c(Cc3ccc4ncccc4c3)nnc2s1` [Compound 2] gave a 50% inhibitory concentration (IC50) in test [1] (6 hours) of 4 nM. Turning to `Cc1nn(C)cc1-c1nn2c([C@@H](C)c3ccc4ncccc4c3)nnc2s1` [Compound 9], half-maximal inhibition in test [1] (Homo sapiens, SNU-5, 6 hours) (IC50) was put at 3 nM. The molecule further yielded an inhibition constant Ki in test [2] of 15 nM. As to `CC(C)c1nn(C)cc1-c1nn2c(Cc3ccc4ncccc4c3)nnc2s1` [Compound 4], 3 nM corresponded to half-maximal inhibition in test [1] (6 hours) (IC50). Molecule `Cn1cc(-c2nn3c(Cc4ccc5ncccc5c4)nnc3s2)c(C(F)(F)F)n1` [Compound 3] registered a half-maximal inhibitory concentration (IC50) in test [1] (6 hours) of 2 nM. Turning to `Cn1cc(-c2nn3c(Cc4c(F)cc5ncccc5c4F)nnc3s2)c(C(F)(F)F)n1` [Compound 17], the IC50 in test [1] (Homo sapiens, SNU-5, 6 hours) amounted to 2.5 nM. In test [2], this molecule yielded a Ki of 2 nM. Taken in the same sequence, the figures for `C[C@H](c1ccc2ncccc2c1)c1nnc2sc(-c3cn(C)nc3C(F)(F)F)nn12` [Compound 6] were 2 nM and 7 nM. The like results for `CCc1nn(C)cc1-c1nn2c(Cc3c(F)cc4ncccc4c3F)nnc2s1` [Compound 15] were, in that order, 2 nM and 2.5 nM.

In test [1] (Homo sapiens, SNU-5, 6 hours), `CC(C)c1nn(C)cc1-c1nn2c(C(F)(F)c3ccc4ncccc4c3)nnc2s1` [Compound 21] returned an IC50 of 6 nM. In test [2], this molecule came in with an inhibition constant Ki of 4 nM. As for `Cn1cc(-c2nn3c(Cc4ccc5ncccc5c4)nnc3s2)cn1` [reference compound], half-maximal inhibition in test [1] (Homo sapiens, SNU-5, 6 hours) (IC50) required 85 nM. Take `Cc1nn(C)cc1-c1nn2c(Cc3c(F)cc4ncccc4c3F)nnc2s1` [Compound 14]: in test [1] (Homo sapiens, SNU-5, 6 hours), the IC50 amounted to 2 nM. In addition, in test [2], the Ki was determined as 7 nM. `Cc1nn(C)cc1-c1nn2c(C(C)(C)c3ccc4ncccc4c3)nnc2s1` [Compound 13] yielded an IC50 in test [1] (Homo sapiens, SNU-5, 6 hours) of 250 nM. The Ki in test [2] was determined as 360 nM.

On to `C[C@@H](c1ccc2ncccc2c1)c1nnc2sc(-c3cn(C)nc3C3CC3)nn12` [Compound 12], for which, in test [1] (Homo sapiens, SNU-5, 6 hours), inhibition was half-maximal at 7 nM (IC50). The same molecule returned an inhibition constant Ki in test [2] of 7 nM.

In turn, `Cn1cc(-c2nn3c(C(F)(F)c4ccc5ncccc5c4)nnc3s2)cn1` [reference compound] gave an IC50 in test [1] (Homo sapiens, SNU-5, 6 hours) of 14 nM. The molecule further came in with a Ki in test [2] of 36 nM. The like results for `CCc1nn(C)cc1-c1nn2c([C@@H](C)c3ccc4ncccc4c3)nnc2s1` [Compound 10] were, in that order, 6.2 nM and 5 nM.
